Measurements: article PMC6271228, “Diethyl 2-(Phenylcarbamoyl)phenyl Phosphorothioates: Synthesis, Antimycobacterial Activity and Cholinesterase Inhibition” (Molecules, 2014)
Values after ≈ are worked out from the molar mass of the structure shown. Like-named read-outs stand apart in the source and are kept apart here.

How the values were obtained:
[1] = test system: Mycobacterium tuberculosis My 331/88 (H37Rv); assay: microbe, parasite or virus in culture; format: cell-based
M. avium My 330/88 = assay: microbe, parasite or virus in culture; format: cell-based, Mycobacterium avium; details: for MIC: Mycobacterium avium, 37 °C; for MIC values against M. avium: all MIC values (14 and 21 d)
M. kansasii My 235/80 = assay: microbe, parasite or virus in culture; format: cell-based, Mycobacterium kansasii; details: for MIC: Mycobacterium kansasii, 37 °C; for MICs for M. kansasii 235/80: all time points
[2] = test system: M. kansasii 6509/96 (clinically isolated); assay: microbe, parasite or virus in culture; format: cell-based; details: Mycobacterium kansasii, 37 °C
AChE from electric eel = molecular target: T1, AChE from electric eel (Electrophorus electricus, UniProt O42275); assay: AChE inhibition, modified Ellman's method; format: biochemical, Electrophorus electricus L.
T1 construct: Acetylcholinesterase was obtained from electric eel (Electrophorus electricus L.); from tissue; host or cells: electric eel (Electrophorus electricus L.)
T1 sequence (O42275 24-633): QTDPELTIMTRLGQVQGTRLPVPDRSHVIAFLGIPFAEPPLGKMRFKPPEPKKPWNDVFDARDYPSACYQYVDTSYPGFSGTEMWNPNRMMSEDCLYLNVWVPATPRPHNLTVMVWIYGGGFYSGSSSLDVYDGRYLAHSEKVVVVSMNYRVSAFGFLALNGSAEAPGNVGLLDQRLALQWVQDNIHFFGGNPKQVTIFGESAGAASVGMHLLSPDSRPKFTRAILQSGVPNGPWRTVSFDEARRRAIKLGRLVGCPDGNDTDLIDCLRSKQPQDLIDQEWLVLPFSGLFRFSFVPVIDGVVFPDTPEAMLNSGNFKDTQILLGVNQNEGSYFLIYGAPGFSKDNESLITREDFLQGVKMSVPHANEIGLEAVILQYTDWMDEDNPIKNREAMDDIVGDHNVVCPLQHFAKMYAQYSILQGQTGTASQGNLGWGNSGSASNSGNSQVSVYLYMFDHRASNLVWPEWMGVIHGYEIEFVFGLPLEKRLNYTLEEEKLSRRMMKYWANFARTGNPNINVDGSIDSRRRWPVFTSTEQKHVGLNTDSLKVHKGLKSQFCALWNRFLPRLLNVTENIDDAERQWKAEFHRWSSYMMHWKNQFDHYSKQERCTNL
Description: (§1) The ability of the tested compounds to inhibit AChE from electric eel (Electrophorus electricus L.) and BChE from equine serum was screened in vitro using modified Ellman’s method for the evaluation of cholinesterase activity. […] […]. These two standards were chosen due to their different structures. […]. The choice of these drugs with different mechanism of action can provide relevant results. All tested compounds expressed a good inhibitory activity with IC50s in low micromolar values.
(§2) The IC50 values were determined using the spectrophotometric Ellman’s method, which is a simple, rapid and direct method to determine the SH and -S-S- group content in proteins. This method is widely used for cholinesterase activity evaluation and screening of the efficiency of cholinesterase inhibitors. Cholinesterase activity is measured indirectly by quantifying the concentration of 5-thio-2-nitrobenzoic acid (TNB) ion formed in the reaction between the thiol reagent 5,5'-dithiobis-2-nitrobenzoic acid (DTNB) and thiocholine, a product of substrate hydrolysis by cholinesterase (i.e., acetylthiocholine, ATCh). All the tested compounds were dissolved in dimethyl sulfoxide (concentration 0.01 M) and then diluted in demineralised water (concentration 0.001 M and 0.0001 M). The Ellman’s method is slightly modified according to Zdrazilova et al.. Acetylcholinesterase was obtained from electric eel (Electrophorus electricus L.) and butyrylcholinesterase from equine serum.

BChE from equine serum = molecular target: T2, BChE from equine serum (Equus caballus, UniProt P81908); assay: BChE inhibition, modified Ellman's method; format: biochemical
T2 construct: butyrylcholinesterase from equine serum; from tissue; host or cells: equine serum
T2 sequence (P81908 whole entry): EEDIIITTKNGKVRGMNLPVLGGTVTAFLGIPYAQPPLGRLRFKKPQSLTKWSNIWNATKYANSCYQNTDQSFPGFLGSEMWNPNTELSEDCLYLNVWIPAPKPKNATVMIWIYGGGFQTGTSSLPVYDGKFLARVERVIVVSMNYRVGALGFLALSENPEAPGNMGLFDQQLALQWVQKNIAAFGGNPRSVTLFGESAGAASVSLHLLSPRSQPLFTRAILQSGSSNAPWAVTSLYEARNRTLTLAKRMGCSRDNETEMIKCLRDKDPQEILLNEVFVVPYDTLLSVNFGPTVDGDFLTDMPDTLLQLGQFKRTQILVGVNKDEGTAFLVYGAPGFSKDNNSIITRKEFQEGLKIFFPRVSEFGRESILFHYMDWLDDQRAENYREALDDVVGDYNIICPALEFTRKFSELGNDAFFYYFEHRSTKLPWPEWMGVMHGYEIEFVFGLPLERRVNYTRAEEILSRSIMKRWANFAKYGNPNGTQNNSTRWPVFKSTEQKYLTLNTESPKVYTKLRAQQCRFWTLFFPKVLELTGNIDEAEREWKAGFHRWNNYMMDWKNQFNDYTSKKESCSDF
Description: as §1, §2

[3] = 336 h, 14 d, 37 °C, read-out: MIC Mtb 331/88 (H37Rv) 14 d
[4] = 504 h, 21 d, 37 °C, read-out: MIC Mtb 331/88 (H37Rv) 21 d
[5] = MY330/88, 336 h, 14 d, read-out: MIC M. avium 330/88 14 d
[6] = MY330/88, 504 h, 21 d, read-out: MIC M. avium 330/88 21 d
[7] = MY235/80, 168 h, 7 d, read-out: MIC M. kansasii 235/80 7 d
[8] = MY235/80, 336 h, 14 d, read-out: MIC M. kansasii 235/80 14 d
[9] = MY235/80, 504 h, 21 d, read-out: MIC M. kansasii 235/80 21 d
[10] = 168 h, 7 d, read-out: MIC M. kansasii 6509/96 7 d
[11] = 336 h, 14 d, read-out: MIC M. kansasii 6509/96 14 d
[12] = 504 h, 21 d, read-out: MIC M. kansasii 6509/96 21 d

Row | SMILES | MIC [1, 3] [µM] | MIC [1, 4] [µM] | MIC (M. avium My 330/88; [5]) [µM] | MIC (M. avium My 330/88; [6]) [µM] | MIC (M. kansasii My 235/80; [7]) [µM] | MIC (M. kansasii My 235/80; [8]) [µM] | MIC (M. kansasii My 235/80; [9]) [µM] | MIC [2, 10] [µM] | MIC [2, 11] [µM] | MIC [2, 12] [µM] | IC50 (AChE from electric eel) [µM] | IC50 (BChE from equine serum) [µM] | MIC ([1]; read-out: MIC against Mtb) [µM] | MIC values against M. avium (M. avium My 330/88) [µM] | MICs for M. kansasii 235/80 (M. kansasii My 235/80) [µM]
1 | CCOP(=S)(OCC)Oc1ccc(Br)cc1C(=O)Nc1cccc(Cl)c1 [1a, O-{4-Bromo-2-[(3-chlorophenyl)carbamoyl]phenyl} O,O-diethyl phosphorothioate] | 8 (≈ 3.83 µg/mL) | 16 (≈ 7.66 µg/mL) | 500 (≈ 239 µg/mL) | > 500 | 125 (≈ 59.8 µg/mL) | 500 (≈ 239 µg/mL) | 500 (≈ 239 µg/mL) | 125 (≈ 59.8 µg/mL) | 500 (≈ 239 µg/mL) | 500 (≈ 239 µg/mL) | 12.6 ± 0.05 | 13.9 ± 0.05 |  |  | 
2 | CCOP(=S)(OCC)Oc1ccc(Br)cc1C(=O)Nc1ccc(Cl)cc1 [1b, O-{4-Bromo-2-[(4-chlorophenyl)carbamoyl]phenyl} O,O-diethyl phosphorothioate] | 16 (≈ 7.66 µg/mL) | 16 (≈ 7.66 µg/mL) | 500 (≈ 239 µg/mL) | 500 (≈ 239 µg/mL) | 125 (≈ 59.8 µg/mL) | 500 (≈ 239 µg/mL) | 500 (≈ 239 µg/mL) | 125 (≈ 59.8 µg/mL) | 500 (≈ 239 µg/mL) | 500 (≈ 239 µg/mL) | 12.9 ± 0.1 | 13.5 ± 0.9 |  |  | 
3 | CCOP(=S)(OCC)Oc1ccc(Br)cc1C(=O)Nc1ccc(Cl)c(Cl)c1 [1c, O-{4-Bromo-2-[(3,4-dichlorophenyl)carbamoyl]phenyl} O,O-diethyl phosphorothioate] | 4 (≈ 2.05 µg/mL) | 4 (≈ 2.05 µg/mL) | 500 (≈ 257 µg/mL) | 500 (≈ 257 µg/mL) | 62.5 (≈ 32.1 µg/mL) | 250 (≈ 128 µg/mL) | 500 (≈ 257 µg/mL) | 62.5 (≈ 32.1 µg/mL) | 125 (≈ 64.1 µg/mL) | 125 (≈ 64.1 µg/mL) | 14 ± 0.1 | 18.8 ± 0.7 | 4 (≈ 2.05 µg/mL) |  | 
4 | CCOP(=S)(OCC)Oc1ccc(Br)cc1C(=O)Nc1cccc(Br)c1 [1d] | 16 (≈ 8.37 µg/mL) | 16 (≈ 8.37 µg/mL) | 125 (≈ 65.4 µg/mL) | 125 (≈ 65.4 µg/mL) | 125 (≈ 65.4 µg/mL) | 125 (≈ 65.4 µg/mL) | 125 (≈ 65.4 µg/mL) | 125 (≈ 65.4 µg/mL) | 125 (≈ 65.4 µg/mL) | 125 (≈ 65.4 µg/mL) | 11.3 ± 0.05 | 20 ± 0.2 |  | ≤ 250 | ≤ 250
5 | CCOP(=S)(OCC)Oc1ccc(Br)cc1C(=O)Nc1ccc(Br)cc1 [1e, O-{4-Bromo-2-[(4-bromophenyl)carbamoyl]phenyl} O,O-diethyl phosphorothioate] | 8 (≈ 4.19 µg/mL) | 16 (≈ 8.37 µg/mL) | 250 (≈ 131 µg/mL) | 250 (≈ 131 µg/mL) | 125 (≈ 65.4 µg/mL) | 250 (≈ 131 µg/mL) | 250 (≈ 131 µg/mL) | 62.5 (≈ 32.7 µg/mL) | 250 (≈ 131 µg/mL) | 250 (≈ 131 µg/mL) | 10.7 | 18.9 ± 0.2 |  | ≤ 250 | ≤ 250
6 | CCOP(=S)(OCC)Oc1ccc(Br)cc1C(=O)Nc1cccc(F)c1 [1f, O-{4-Bromo-2-[(3-fluorophenyl)carbamoyl]phenyl} O,O-diethyl phosphorothioate] | 8 (≈ 3.7 µg/mL) | 16 (≈ 7.4 µg/mL) | 250 (≈ 116 µg/mL) | 500 (≈ 231 µg/mL) | 62.5 (≈ 28.9 µg/mL) | 250 (≈ 116 µg/mL) | 500 (≈ 231 µg/mL) | 62.5 (≈ 28.9 µg/mL) | 250 (≈ 116 µg/mL) | 250 (≈ 116 µg/mL) | 12.7 ± 0.05 | 12.2 |  |  | 
7 | CCOP(=S)(OCC)Oc1ccc(Br)cc1C(=O)Nc1ccc(F)cc1 [1g, O-{4-Bromo-2-[(4-fluorophenyl)carbamoyl]phenyl} O,O-diethyl phosphorothioate] | 32 (≈ 14.8 µg/mL) | 32 (≈ 14.8 µg/mL) | 500 (≈ 231 µg/mL) | > 500 | 125 (≈ 57.8 µg/mL) | 500 (≈ 231 µg/mL) | > 500 | 125 (≈ 57.8 µg/mL) | 250 (≈ 116 µg/mL) | 250 (≈ 116 µg/mL) | 12.4 ± 0.05 | 12.6 ± 0.3 |  |  | 
8 | CCOP(=S)(OCC)Oc1ccc(Br)cc1C(=O)Nc1cccc(C(F)(F)F)c1 [1h, O-(4-Bromo-2-{[3-(trifluoromethyl)phenyl]carbamoyl}phenyl) O,O-diethyl phosphorothioate] | 8 (≈ 4.1 µg/mL) | 8 (≈ 4.1 µg/mL) | 125 (≈ 64 µg/mL) | 125 (≈ 64 µg/mL) | 32 (≈ 16.4 µg/mL) | 62.5 (≈ 32 µg/mL) | 125 (≈ 64 µg/mL) | 32 (≈ 16.4 µg/mL) | 62.5 (≈ 32 µg/mL) | 125 (≈ 64 µg/mL) | 13 ± 0.02 | 20 ± 0.5 | 8 (≈ 4.1 µg/mL) | ≤ 250 | ≤ 250
